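Exposure lasted 48 hours, with cells grown in 96-well plates and compounds tested at five concentrations. TGI: total growth inhibition.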

Test systems include SR leukemia; SK-OV-3 ovarian; U251 CNS; CCRF-CEM leukemia; UACC-62 melanoma; LOX IMVI melanoma; RXF 393 renal; EKVX NSCLC; SW-620 colon; SK-MEL-2 melanoma; MCF7 breast; KM12 colon.
Holding throughout (test): growth of human tumour cells (NCI), 48 h

Take `NC(CCCCN=Cc1nc(-c2ccccc2)oc1O)C(=O)O` (centres undefined): the TGI in the experiment with SR leukemia, in the experiment with SK-OV-3 ovarian, in the experiment on U251 CNS, in the experiment with CCRF-CEM leukemia, in the experiment on UACC-62 melanoma and in the experiment on LOX IMVI melanoma was > 100 µM throughout. For the same compound, the TGI in the experiment with RXF 393 renal, in the experiment on EKVX NSCLC, in the experiment on SW-620 colon and in the experiment on SK-MEL-2 melanoma was > 100 µM in each case.
Regarding `COC1=CC(=O)c2c(O)ccc(O)c2C1=O`, the TGI worked out at 33 µM in the experiment on SK-OV-3 ovarian; 22.1 µM in the experiment with U251 CNS; 8.02 µM in the experiment with MCF7 breast; 43.6 µM with CCRF-CEM leukemia; 4.21 µM in the experiment on UACC-62 melanoma; 31.3 µM in the experiment on RXF 393 renal. In addition, the TGI with EKVX NSCLC was 37.8 µM; in the experiment with SW-620 colon, 17.7 µM; with KM12 colon, 16.4 µM.
With `O=C1c2ccccc2C(=O)C2C3c4ccccc4C(c4ccccc43)C12` (centres undefined), the TGI is 30.5 µM in the experiment on SR leukemia; > 100 µM in the experiment with SK-OV-3 ovarian; > 100 µM in the experiment with U251 CNS; 26 µM with CCRF-CEM leukemia; > 100 µM in the experiment with UACC-62 melanoma; 28.9 µM with LOX IMVI melanoma. For the same compound, the TGI in the experiment on RXF 393 renal was 22.7 µM; in the experiment on EKVX NSCLC, 68.5 µM; with SW-620 colon, > 100 µM; in the experiment on KM12 colon, > 100 µM.
With `Nc1ccc(C(=O)NN2C(=O)C(Cl)C2c2ccc([N+](=O)[O-])cc2)cc1` (centres undefined), the TGI is 29.1 µM with SK-OV-3 ovarian; 5.28 µM with U251 CNS; 14 µM with CCRF-CEM leukemia; 24.7 µM with UACC-62 melanoma; 5.2 µM in the experiment on LOX IMVI melanoma; 24.4 µM in the experiment with EKVX NSCLC. Also, the TGI with SW-620 colon was determined as 26.2 µM; in the experiment on KM12 colon it was 23.9 µM; in the experiment with SK-MEL-2 melanoma, 31.8 µM.
Take `CN(C)CS/C(N)=N\C(O)C(Cl)(Cl)Cl` (centres undefined): the TGI in the experiment on SR leukemia, in the experiment on U251 CNS, in the experiment with CCRF-CEM leukemia, in the experiment with UACC-62 melanoma, with LOX IMVI melanoma and in the experiment with RXF 393 renal was > 100 µM each time. The TGI with EKVX NSCLC, in the experiment with SW-620 colon, with KM12 colon and with SK-MEL-2 melanoma was > 100 µM in each case.
Turning to `CCCC(=O)/C=C/S/C=C/C(=O)CCC`, the TGI in the experiment with SK-OV-3 ovarian is > 100 µM; in the experiment with U251 CNS, 66.2 µM; in the experiment on MCF7 breast it was > 100 µM; in the experiment on UACC-62 melanoma, 29.8 µM; with LOX IMVI melanoma it was 6.27 µM; in the experiment with RXF 393 renal it was 21.4 µM. The TGI with EKVX NSCLC was 10.6 µM; in the experiment on SW-620 colon it was 6.05 µM; in the experiment on KM12 colon, 37.3 µM; with SK-MEL-2 melanoma it was > 100 µM.
`CC(C)C(Sc1nc(-c2ccccc2)c(-c2ccccc2)[nH]1)C(=O)N/N=C/c1ccc([N+](=O)[O-])cc1` (centres undefined): the TGI in the experiment with SR leukemia is 33.6 µM; with SK-OV-3 ovarian, 48.2 µM; in the experiment on U251 CNS, 29.8 µM; with CCRF-CEM leukemia it was 28.2 µM; with UACC-62 melanoma it was 31.5 µM; in the experiment on LOX IMVI melanoma it was 26 µM. The TGI was found to be 65.6 µM with EKVX NSCLC, 37.2 µM in the experiment on SW-620 colon, 24.5 µM in the experiment on KM12 colon and 29.4 µM with SK-MEL-2 melanoma.
On to `O=C1SC(c2ccccc2)(c2ccccc2)c2ccccc21`, for which the TGI with SK-OV-3 ovarian, with U251 CNS, in the experiment on CCRF-CEM leukemia, in the experiment on UACC-62 melanoma, with LOX IMVI melanoma and in the experiment on RXF 393 renal was > 100 µM each time. Besides, the TGI with EKVX NSCLC, with SW-620 colon, in the experiment with KM12 colon and in the experiment with SK-MEL-2 melanoma was > 100 µM each time.
Consider `Cc1nc2c(n1CCC(C)C)C(=O)c1ccccc1C2=O`, for which the TGI in the experiment on SR leukemia was 37.6 µM; in the experiment on SK-OV-3 ovarian, > 100 µM; with U251 CNS it was 60.4 µM; with CCRF-CEM leukemia, 53.9 µM; in the experiment on UACC-62 melanoma, 27 µM; in the experiment on LOX IMVI melanoma, 30.9 µM. In addition, the TGI with RXF 393 renal is 79.7 µM; in the experiment with EKVX NSCLC, 92 µM; with SW-620 colon, > 100 µM; in the experiment with KM12 colon it was > 100 µM; with SK-MEL-2 melanoma, 34.6 µM.
Take `NC(CCCNc1cccc(O)c1)C(=O)O` (centres undefined): the TGI in the experiment on SR leukemia, in the experiment with SK-OV-3 ovarian, with U251 CNS, in the experiment on CCRF-CEM leukemia, with UACC-62 melanoma and in the experiment on LOX IMVI melanoma was > 100 µM throughout. In addition, the TGI in the experiment with RXF 393 renal, with EKVX NSCLC, in the experiment on SW-620 colon and with SK-MEL-2 melanoma was > 100 µM each time.
Regarding `COC(=O)c1cc(-c2ccc(-c3ccc(O)cc3)cc2)cc(-c2ccc(-c3ccc(O)cc3)cc2)c1`, the TGI with SK-OV-3 ovarian was found to be 29.6 µM; with MCF7 breast it was 25.9 µM; in the experiment with CCRF-CEM leukemia, 31.2 µM; in the experiment with LOX IMVI melanoma, 18.4 µM; in the experiment on RXF 393 renal it was 20.9 µM; in the experiment on EKVX NSCLC, 25.2 µM. The figures for the TGI in the experiment with SW-620 colon, in the experiment with KM12 colon and with SK-MEL-2 melanoma were 21.9 µM, 6.82 µM and 33.7 µM, respectively.
`O/N=C1/CCCCCC1NO` (centres undefined): the TGI in the experiment with SK-OV-3 ovarian, in the experiment on U251 CNS, with MCF7 breast, in the experiment on UACC-62 melanoma, in the experiment on LOX IMVI melanoma and with RXF 393 renal was > 100 µM throughout. Further, the TGI with EKVX NSCLC, with SW-620 colon, in the experiment with KM12 colon and in the experiment with SK-MEL-2 melanoma was > 100 µM throughout.
Turning to `COc1ccc(CC2NCCc3cc(OC)c(OC)cc32)cc1` (centres undefined), the TGI with SR leukemia, in the experiment with SK-OV-3 ovarian, in the experiment with U251 CNS, with CCRF-CEM leukemia, with UACC-62 melanoma and in the experiment on LOX IMVI melanoma was > 100 µM in each case. Moreover, the TGI in the experiment with RXF 393 renal, with EKVX NSCLC, in the experiment with SW-620 colon, in the experiment with KM12 colon and with SK-MEL-2 melanoma was > 100 µM in each case.

The values are drawn from PubChem BioAssay (NCI).
